Where a chain is given by its changes, count along the chain named. One block for each molecule: values may come before it.
Legend:
human P2X7 [1] = details: cited from earlier work
mP2X7 = molecular target: T1, mP2X7 (Mus musculus, UniProt Q9Z1M0); assay: Whole-cell patch clamp, ATP-evoked current, transfected HEK293; format: cell-based
T1 sequence (Q9Z1M0 1-595): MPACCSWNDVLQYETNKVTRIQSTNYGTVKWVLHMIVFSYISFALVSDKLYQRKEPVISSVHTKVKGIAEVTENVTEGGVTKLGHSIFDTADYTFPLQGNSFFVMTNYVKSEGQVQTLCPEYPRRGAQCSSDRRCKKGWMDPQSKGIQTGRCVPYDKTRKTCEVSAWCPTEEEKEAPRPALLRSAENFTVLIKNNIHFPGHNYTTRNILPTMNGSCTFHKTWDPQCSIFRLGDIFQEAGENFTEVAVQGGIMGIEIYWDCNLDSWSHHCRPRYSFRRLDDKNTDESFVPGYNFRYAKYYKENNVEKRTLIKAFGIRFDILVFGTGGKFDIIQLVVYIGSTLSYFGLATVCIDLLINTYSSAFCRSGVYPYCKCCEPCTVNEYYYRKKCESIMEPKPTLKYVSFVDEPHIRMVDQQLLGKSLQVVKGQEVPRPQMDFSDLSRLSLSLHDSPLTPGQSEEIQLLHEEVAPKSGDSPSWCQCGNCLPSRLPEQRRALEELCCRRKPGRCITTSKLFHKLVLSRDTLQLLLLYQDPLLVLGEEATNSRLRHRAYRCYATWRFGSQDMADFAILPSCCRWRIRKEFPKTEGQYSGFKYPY

mP2X7 A312V = molecular target: T2, mP2X7 A312V (Mus musculus, UniProt Q9Z1M0, A312V); assay: Whole-cell patch clamp, mP2X7 mutant; format: cell-based; details: read-out: EC50 (apparent affinity for ATP); m7A312V
T2 sequence (Q9Z1M0 1-595 A312V): T1 sequence (Q9Z1M0 1-595) with A312V

human P2X7 [2] = assay: Literature IC50; details: from Table S1 values
human P2X3 = details: read-out: IC50 (half-maximal inhibitory concentration); hP2X3; cited from earlier work
human P2X4 = details: cited from earlier work
hP2X7 = molecular target: T3, hP2X7 (Homo sapiens, UniProt Q99572); assay: Whole-cell patch clamp, ATP-evoked current, transfected HEK293; format: cell-based
T3 sequence (Q99572 1-595): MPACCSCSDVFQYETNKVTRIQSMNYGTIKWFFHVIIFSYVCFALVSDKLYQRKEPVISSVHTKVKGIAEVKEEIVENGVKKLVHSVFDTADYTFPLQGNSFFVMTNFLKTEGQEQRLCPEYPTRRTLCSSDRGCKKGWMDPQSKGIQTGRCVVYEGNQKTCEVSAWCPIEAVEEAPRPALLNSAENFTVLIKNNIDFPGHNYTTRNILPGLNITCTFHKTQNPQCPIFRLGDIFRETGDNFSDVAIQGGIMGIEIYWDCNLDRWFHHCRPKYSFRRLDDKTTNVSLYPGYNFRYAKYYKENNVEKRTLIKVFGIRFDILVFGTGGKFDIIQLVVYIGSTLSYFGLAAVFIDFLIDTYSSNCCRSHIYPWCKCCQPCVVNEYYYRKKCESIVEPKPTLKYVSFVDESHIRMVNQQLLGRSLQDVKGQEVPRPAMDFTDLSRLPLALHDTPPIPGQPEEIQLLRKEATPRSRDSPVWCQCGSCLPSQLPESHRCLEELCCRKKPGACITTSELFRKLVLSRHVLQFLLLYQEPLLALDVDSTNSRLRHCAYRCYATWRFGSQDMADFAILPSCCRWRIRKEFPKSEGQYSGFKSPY

rP2X7 = molecular target: T4, rP2X7 (Rattus norvegicus, UniProt Q64663); assay: as above; format: cell-based; details: HEK293, read-out: inhibition rate
T4 sequence (Q64663 1-595): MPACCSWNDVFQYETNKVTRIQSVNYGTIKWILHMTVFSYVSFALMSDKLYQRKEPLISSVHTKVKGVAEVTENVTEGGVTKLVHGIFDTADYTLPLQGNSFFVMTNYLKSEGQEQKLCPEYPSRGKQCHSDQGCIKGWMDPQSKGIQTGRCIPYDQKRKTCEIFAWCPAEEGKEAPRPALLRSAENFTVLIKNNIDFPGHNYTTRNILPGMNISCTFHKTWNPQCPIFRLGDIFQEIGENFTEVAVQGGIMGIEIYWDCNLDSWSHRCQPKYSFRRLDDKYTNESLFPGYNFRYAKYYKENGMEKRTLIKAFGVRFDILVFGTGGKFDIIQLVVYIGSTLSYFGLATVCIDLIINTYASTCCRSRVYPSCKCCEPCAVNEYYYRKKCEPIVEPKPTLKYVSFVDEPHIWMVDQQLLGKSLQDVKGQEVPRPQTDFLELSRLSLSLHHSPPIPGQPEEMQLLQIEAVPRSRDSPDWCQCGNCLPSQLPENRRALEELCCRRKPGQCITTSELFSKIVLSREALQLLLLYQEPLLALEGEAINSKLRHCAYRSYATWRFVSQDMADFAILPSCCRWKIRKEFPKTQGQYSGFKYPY

hP2X7 I68F = hP2X7 I68F (Homo sapiens, UniProt Q99572, I68F); assay: Whole-cell patch clamp, hP2X7 mutant; format: cell-based
Sequence of hP2X7 I68F (Q99572 whole entry I68F): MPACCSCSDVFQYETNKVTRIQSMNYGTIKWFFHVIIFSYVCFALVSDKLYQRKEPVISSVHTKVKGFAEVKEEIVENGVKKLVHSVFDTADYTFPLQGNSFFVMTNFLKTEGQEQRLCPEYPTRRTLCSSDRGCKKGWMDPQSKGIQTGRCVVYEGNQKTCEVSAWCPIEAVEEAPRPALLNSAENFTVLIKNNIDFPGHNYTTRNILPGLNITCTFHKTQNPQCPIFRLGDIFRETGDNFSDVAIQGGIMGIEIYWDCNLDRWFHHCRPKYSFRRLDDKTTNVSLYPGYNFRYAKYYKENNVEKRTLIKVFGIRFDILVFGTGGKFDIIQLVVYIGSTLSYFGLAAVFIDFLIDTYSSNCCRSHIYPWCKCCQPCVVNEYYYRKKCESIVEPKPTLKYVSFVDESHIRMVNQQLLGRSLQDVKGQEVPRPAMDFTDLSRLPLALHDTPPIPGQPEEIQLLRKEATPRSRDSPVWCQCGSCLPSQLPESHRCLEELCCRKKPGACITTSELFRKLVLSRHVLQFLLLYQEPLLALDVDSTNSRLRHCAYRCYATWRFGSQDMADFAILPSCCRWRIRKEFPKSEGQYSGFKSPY

hP2X7 F88A = hP2X7 F88A (Homo sapiens, UniProt Q99572, F88A); assay: Whole-cell patch clamp, hP2X7 mutant; format: cell-based; details: h7F88A, 30 μM (Fig. S3b)
Sequence of hP2X7 F88A (Q99572 whole entry F88A): as the sequence (Q99572 whole entry I68F) above, with F68I, F88A counted along it

hP2X7 F103A = hP2X7 F103A (Homo sapiens, UniProt Q99572, F103A); assay: Whole-cell patch clamp, hP2X7 mutant; format: cell-based; details: h7F103A, 30 μM (Fig. S3b)
Sequence of hP2X7 F103A (Q99572 whole entry F103A): as the sequence (Q99572 whole entry I68F) above, with F68I, F103A counted along it

hP2X7 M140E = hP2X7 M140E (Homo sapiens, UniProt Q99572, M140E); assay: Whole-cell patch clamp, hP2X7 mutant; format: cell-based; details: h7M140E, 30 μM (Fig. S3b)
Sequence of hP2X7 M140E (Q99572 whole entry M140E): as the sequence (Q99572 whole entry I68F) above, with F68I, M140E counted along it

hP2X7 Y295F = hP2X7 Y295F (Homo sapiens, UniProt Q99572, Y295F); assay: Whole-cell patch clamp, hP2X7 mutant; format: cell-based
Sequence of hP2X7 Y295F (Q99572 whole entry Y295F): as the sequence (Q99572 whole entry I68F) above, with F68I, Y295F counted along it

hP2X7 E305F = hP2X7 E305F (Homo sapiens, UniProt Q99572, E305F); assay: Whole-cell patch clamp, hP2X7 mutant; format: cell-based
Sequence of hP2X7 E305F (Q99572 whole entry E305F): as the sequence (Q99572 whole entry I68F) above, with F68I, E305F counted along it

hP2X7 V312A = hP2X7 V312A (Homo sapiens, UniProt Q99572, V312A); assay: Whole-cell patch clamp, hP2X7 mutant; format: cell-based
Sequence of hP2X7 V312A (Q99572 whole entry V312A): as the sequence (Q99572 whole entry I68F) above, with F68I, V312A counted along it

hP2X7 E305C = hP2X7 E305C (Homo sapiens, UniProt Q99572, E305C); assay: Whole-cell patch clamp, hP2X7 mutant; format: cell-based; details: h7E305C, 30 μM (Fig. S3b)
Sequence of hP2X7 E305C (Q99572 whole entry E305C): as the sequence (Q99572 whole entry I68F) above, with F68I, E305C counted along it

[3] = HEK293, read-out: inhibition rate

SMILES: COc1ccc(CC(=O)NC(NC(=NC#N)Nc2cccc3ncccc23)C(C)(C)C)cc1OC (centres unmarked) [A740003, N-(1-{[(cyanoimino)(5-quinolinylamino)methyl]amino}-2,2-dimethylpropyl)-2-(3,4-dimethoxyphenyl)acetamide]
IC50 (human P2X7 [1]; P2X7): 0.0437 µM
fold difference in IC50 between hP2X7 and mP2X7 (human P2X7 [1]): 37 fold

SMILES: CNC(=O)c1cc(F)c(-c2nc3cc(C)ccn3c2C[C@H]2CN(C(=O)OC)CCO2)c(F)c1 [BLU-5937]
IC50 (human P2X3): 0.025 µM

SMILES: CC(C)c1cc(Br)c(NC(=O)Nc2cccnc2)c(Br)c1 [BX430]
IC50 (human P2X4; P2X4): 0.54 µM
IC50 for hP2X4, fold lower than for mP2X4 and rP2X4 (human P2X4): more than 20 fold
fold difference between hP2X4 and mP2X4 (human P2X4): > 20 fold

SMILES: C=CC[C@H]1c2ccc(OC)c(OC)c2CN2CCc3cc4c(cc3[C@@H]12)OCO4 [PSFL1190, (13S,13aR)-13-allyl-9,10-dimethoxy-5,8,13,13a-tetrahydro-6H-1,3dioxolo[4,5-g] isoquinolino[3,2-a]isoquinoline]
IC50 (hP2X7): 12.6 ± 2.9 µM
fold difference in affinity for hP2X7 between PSFL1191 and PSFL1190 (hP2X7): more than 50 fold
inhibition at 30 µM (mP2X7; [3]): 11.8 ± 6.1%
inhibition at 30 µM (rP2X7): 12.1 ± 2.4%

SMILES: COc1ccc2cc3[n+](cc2c1OC)CCc1cc2c(cc1-3)OCO2 [berberine]
IC50 (hP2X7): 12.7 ± 0.9 µM
inhibition at 300 µM (mP2X7; [3]): 8.02 ± 2.7%
inhibition at 300 µM (rP2X7): 19.2 ± 4.3%
IC50 (hP2X7 I68F): 39.9 ± 5.8 µM
inhibitory effect vs h7WT (hP2X7 I68F; h7I68F, 30 μM (Fig. S3b)): notably attenuated
inhibitory effect vs h7WT (hP2X7 F88A): notably attenuated
inhibitory effect vs h7WT (hP2X7 F103A): notably attenuated
inhibitory effect vs h7WT (hP2X7 M140E): notably attenuated
IC50 (hP2X7 Y295F): 46.6 ± 7.8 µM
inhibitory effect vs h7WT (hP2X7 Y295F; h7Y295F, 30 μM (Fig. S3b)): notably attenuated
IC50 (hP2X7 E305F): 87.7 ± 4.3 µM
inhibitory effect vs h7WT (hP2X7 E305F; h7E305F, 30 μM (Fig. S3b)): notably attenuated
IC50 (hP2X7 V312A): > 300 µM
inhibitory effect vs h7WT (hP2X7 V312A; h7V312A, 30 μM (Fig. S3b)): notably attenuated
inhibitory effect vs h7WT (hP2X7 E305C): notably attenuated

The next lines start with the values.

EC50 (mP2X7; read-out: EC50 (apparent affinity for ATP), m7WT): 782 ± 71 µM
EC50 (mP2X7 A312V): 1420 ± 170 µM
SMILES: Nc1ncnc2c1ncn2[C@@H]1O[C@H](COP(=O)(O)OP(=O)(O)OP(=O)(O)O)[C@@H](O)[C@H]1O [ATP, reference compound]

apparent affinity (IC50) for hP2X7, fold higher than for mP2X7 (human P2X7 [2]): 500 fold
apparent affinity (IC50) for hP2X7, fold higher than for rP2X7 (human P2X7 [2]): 1587 fold
SMILES: O=C(CC12CC3CC(CC(C3)C1)C2)Nc1cccc2nc(NCCNCCO)ccc12 [AZ10606120]
